Paper PMC11063020, “Antiviral and anti-inflammatory activities of chemical constituents from twigs of Mosla chinensis Maxim” (Natural Products and Bioprospecting, 2024)
Read-outs that look alike come from different tables or passages of the source.

Columns and labels:
[1] = test system: NO production in LPS-activated RAW 264.7 cells; test: Nitric oxide production assay in LPS-activated RAW 264.7 cells; type: cell-based; settings: Mus musculus, read-out: IC50 (50% inhibitory concentration), LPS-induced NO production
[2] = Cytotoxicity (CC50) in macrophages; type: cell-based; settings: mouse
Text: Table 3 Inhibitory effect of 9, 22, 23 and 25 on LSP-induced NO production in macrophages | column: CC50^c (µM)

[3] = test system: A/WSN/33/2009 (H1N1) virus; test: microbe, parasite or virus in culture; type: cell-based; settings: Influenza A virus, MDCK, 48 h; read-out: IC50 against A/WSN/33/2009 (H1N1) virus
[4] = test system: nucleoprotein expression in influenza virus-infected MDCK cells; type: cell-based, influenza A virus; settings: 20 at 50 μM, 2, 5 and 8 h
[5] = test system: A/WSN/33/2009 (H1N1) virus in MDCK cells; type: cell-based, influenza A virus; settings: 20 at 50 μM, versus DMSO group
[6] = target: hemagglutinin (HA) of influenza A/WSN/33/2009 (H1N1) (Influenza A virus, UniProt P03454); settings: chicken RBCs without virus
[7] = RAW264.7, LPS (1 μg/ml) activated RAW 264.7 cells, 24 h
[8] = macrophages, read-out: CC50 (50% cytotoxic concentration)

Sequence of hemagglutinin (HA) of influenza A/WSN/33/2009 (H1N1) (P03454 18-342 limits assumed): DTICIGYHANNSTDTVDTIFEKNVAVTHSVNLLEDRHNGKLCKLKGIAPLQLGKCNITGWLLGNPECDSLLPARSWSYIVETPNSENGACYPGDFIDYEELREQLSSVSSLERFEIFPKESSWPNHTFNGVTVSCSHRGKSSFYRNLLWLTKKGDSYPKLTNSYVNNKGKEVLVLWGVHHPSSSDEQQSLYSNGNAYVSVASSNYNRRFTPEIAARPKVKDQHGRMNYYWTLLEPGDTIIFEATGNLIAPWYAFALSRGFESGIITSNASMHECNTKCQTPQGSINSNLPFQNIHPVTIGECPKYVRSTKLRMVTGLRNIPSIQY
Sequence of hemagglutinin (HA) of influenza A/WSN/33/2009 (H1N1) (P03454 344-565 partner limits assumed): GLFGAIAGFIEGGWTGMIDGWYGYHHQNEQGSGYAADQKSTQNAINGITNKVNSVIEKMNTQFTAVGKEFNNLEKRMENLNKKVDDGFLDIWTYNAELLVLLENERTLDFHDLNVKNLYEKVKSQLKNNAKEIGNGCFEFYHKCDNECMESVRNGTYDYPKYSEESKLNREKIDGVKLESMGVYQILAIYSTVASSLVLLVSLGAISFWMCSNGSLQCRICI

Structure (SMILES): COC(=O)[C@H]1Oc2ccc(/C=C/C(=O)O/C=C\c3ccc(O)c(O)c3)cc2O[C@H]1c1ccc(O)c(O)c1 [Compound 22, hyprhombins A]
- IC50 [1, 7]: 20.5 µM
- CC50 [2, 8]: > 50 µM

Structure (SMILES): [H]/N=C(/NC)NCCC[C@H](N)C(=O)O [L-NMMA, reference compound]
- IC50 ([1]; RAW264.7, 24 h): 21.8 µM
- CC50 [2, 8]: > 50 µM

Structure (SMILES): CCOC(=O)C1=C[C@@H](OC(CC)CC)[C@H](NC(C)=O)[C@@H](N)C1 [oseltamivir, reference compound]
- IC50 [3]: 6.85 µM

Structure (SMILES): COC(=O)C[C@@H](OC(=O)/C=C/c1ccc(O)c(O)c1)c1ccc(O)c(O)c1 [Compound 23, 3-(3ʹʹʹ,4ʹʹʹ-dihydroxyphenyl)-acrylic acid 1-(3ʹʹ,4ʹʹ-dihydroxyphenyl)-2-methoxycarbonylethyl ester]
- IC50 [1, 7]: 27.7 µM
- CC50 [2, 8]: > 50 µM

Structure (SMILES): O=c1cc(-c2ccc(O)c(O)c2)oc2cc(O)cc(O)c12 [Compound 9, luteolin]
- IC50 [1, 7]: 22.8 µM
- CC50 [2]: > 50 µM

Structure (SMILES): COC(=O)[C@H]1c2c(/C=C/C(=O)O[C@H](Cc3ccc(O)c(O)c3)C(=O)O)ccc(O)c2O[C@@H]1c1ccc(O)c(O)c1 [Compound 20, methyl lithospermate]
- IC50 [3]: 20.5 µM
- nucleoprotein protein expression (western blot) [4]: dramatically reduce the nucleoprotein protein expression
- virus population / nucleoprotein distribution in infected cells (fluorescence microscopy) [5]: influenza virus could be inhibited
- effect of the compound alone on red blood cells [6]: no effect on red blood cells

Structure (SMILES): COC(=O)[C@H](Cc1ccc(O)c(O)c1)OC(=O)/C=C/c1ccc(O)c2oc(-c3ccc(O)c(O)c3)cc12 [Compound 25, methyl salvianol acid C]
- IC50 [1, 7]: 30.1 µM
- CC50 [2, 8]: > 50 µM
